Data: PubChem BioAssay (NCI)
Several values for one entry are separate records, joined by “and”; a condition that tells them apart may be missing. Equal values may be shown once.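 Briefly, cells in 96-well plates were exposed to five compound concentrations for 48 h, and endpoints were estimated by linear interpolation. GI50 = concentration required for 50% inhibition of growth. TGI: concentration producing complete growth inhibition.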

Tests used:
Assay in all cases: inhibition of tumour cell growth, NCI panel, 48 h
IGROV1 ovarian = tested on: IGROV1 ovarian
NCI-H522 lung = tested on: NCI-H522 lung
UACC-257 melanoma = tested on: UACC-257 melanoma
K-562 leukemia = tested on: K-562 leukemia
HCT-15 colon = tested on: HCT-15 colon
M14 melanoma = tested on: M14 melanoma
SR leukemia = tested on: SR leukemia
SN12C renal = tested on: SN12C renal
SNB-19 CNS = tested on: SNB-19 CNS
SK-OV-3 ovarian = tested on: SK-OV-3 ovarian

Compound	GI50 (IGROV1 ovarian)	TGI (IGROV1 ovarian)	GI50 (NCI-H522 lung)	TGI (NCI-H522 lung)	GI50 (UACC-257 melanoma)	TGI (UACC-257 melanoma)	GI50 (K-562 leukemia)	TGI (K-562 leukemia)	GI50 (HCT-15 colon)	TGI (HCT-15 colon)	GI50 (M14 melanoma)	TGI (M14 melanoma)	TGI (SR leukemia)	GI50 (SN12C renal)	TGI (SN12C renal)	GI50 (SNB-19 CNS)	TGI (SNB-19 CNS)	GI50 (SK-OV-3 ovarian)	TGI (SK-OV-3 ovarian)	GI50 (SR leukemia)
CCC1(OC(=O)CN)C(=O)OCc2c1cc1n(c2=O)Cc2cc3ccccc3nc2-1 (centres undefined)	0.134 µM	0.726 µM and 2.21 µM	0.0362 µM	0.59 µM and 0.624 µM	0.0859 µM	0.721 µM and 0.545 µM	0.17 µM	> 100 µM	0.192 µM	> 20.3 µM	0.0179 µM	0.846 µM and 0.174 µM	< 0.0347 µM	0.00715 µM	0.64 µM	0.0128 µM	4.91 µM	0.0224 µM	> 54.3 µM	
C=C1SC(=Nc2ccccc2Cl)N(C(=O)c2sc3ccccc3c2Cl)C12CCCCC2	9.66 µM	> 100 µM	4.23 µM	> 100 µM	23.6 µM	> 100 µM	4.14 µM	> 100 µM	5.45 µM	> 100 µM	45.1 µM	> 100 µM	> 100 µM	6.99 µM	> 100 µM	7.56 µM	> 100 µM	13.9 µM	> 100 µM	8.54 µM
O=CN1N=C(c2cccc(Nc3ccnc4cc(Cl)ccc34)c2)CC1c1ccccc1 (centres undefined)	0.687 µM	> 100 µM	0.185 µM	0.633 µM	0.301 µM	37.6 µM	0.301 µM	10.5 µM	0.511 µM	> 100 µM	0.284 µM	6.75 µM	1.72 µM	0.617 µM	> 54.3 µM	0.585 µM	> 100 µM	0.363 µM	14.3 µM	0.201 µM
CC1(C)OC(=O)C(C#N)=C1C[n+]1ccccc1		> 10 µM		> 10 µM		> 10 µM		> 10 µM		> 10 µM		> 10 µM	> 10 µM		> 10 µM		> 10 µM		> 10 µM	
NCCNC(=O)c1cccc2cc3ccccc3nc12		> 28.6 µM		> 100 µM		8.81 µM		6.16 µM		15 µM		11 µM	53.8 µM		20.8 µM		19.1 µM		> 39 µM	
C=CCC1(C(=O)OC(C)(C)C)C(OC)=C(C(=O)OC(C)(C)C)C2C1C(C(=O)OC(C)(C)C)=C(OC)C2(CC=C)C(=O)OC(C)(C)C (centres undefined)		> 100 µM		> 100 µM		> 100 µM		> 100 µM		> 100 µM		> 100 µM	> 100 µM		> 100 µM		> 100 µM		> 100 µM	
